{"source": "patent US11446287B2", "about": "“Compounds and methods for EP300 or CBP modulation and indications therefor” (Opna Immuno-Oncology SA, priority 2019, dated 2022)", "data": [{"target": "T1, Recombinant human EP300 containing the bromodomain (EP300-BD (1040-1161)) (Homo sapiens, UniProt Q09472)", "T1 construct": "Recombinant human EP300 bromodomain (EP300-BD (1040-1161)); made in house; host or cells: E. coli BL21-CodonPlus (DE3), modified pET vector", "T1 sequence (Q09472 1040-1161)": "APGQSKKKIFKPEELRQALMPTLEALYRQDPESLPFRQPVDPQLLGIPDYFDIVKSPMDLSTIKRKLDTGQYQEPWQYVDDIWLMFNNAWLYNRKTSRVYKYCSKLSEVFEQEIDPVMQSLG", "experiment": "EP300 Alphascreen binding assay", "outline": "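Displacement of a biotinylated acetyl-K56 histone H3 peptide from the N-His bromodomain construct (1040-1161) measured by AlphaScreen proximity, beads at 7.5 μg/ml final, read 60 min after addition. Protein, peptide and compound first incubated 1 h at room temperature, pH 7.5 HEPES buffer; IC50 by four-parameter logistic fit.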", "units": {"IC50": "nM"}, "values": [{"compound": "Cc1noc(C)c1-c1cnc2c(c1)c(-c1c(Cl)cc(C(=O)O)cc1OC(F)(F)F)cn2[C@H]1CCOC1", "note": "[P-0346, (S)-3-chloro-4-(5-(3,5-dimethylisoxazol-4-yl)-1-(tetrahydrofuran-3-yl)-1H-pyrrolo[2,3-b]pyridin-3-yl)-5-(trifluoromethoxy)benzoic acid]", "IC50": "0.1 to 1000"}, {"compound": "Cc1noc(C)c1-c1cnc2c(c1)c(-c1c(Cl)cc(C(=O)O)cc1OC(C)C)cn2C1CCOCC1", "note": "[P-0372, 3-chloro-4-(5-(3,5-dimethylisoxazol-4-yl)-1-(tetrahydro-2H-pyran-4-yl)-1H-pyrrolo[2,3-b]pyridin-3-yl)-5-isopropoxybenzoic acid]", "IC50": "0.1 to 1000"}, {"compound": "Cc1noc(C)c1-c1cnc2c(c1)c(-c1ccc(C(=O)O)cc1OCC(F)F)cn2-c1cnc(N2CCC2)nc1", "note": "[P-0328, 4-(1-(2-(azetidin-1-yl)pyrimidin-5-yl)-5-(3,5-dimethylisoxazol-4-yl)-1H-pyrrolo[2,3-b]pyridin-3-yl)-3-(2,2-difluoroethoxy)benzoic acid]", "IC50": "0.1 to 1000"}, {"compound": "Cc1noc(C)c1-c1cnc2c(c1)c(-c1c(Cl)cc(C(=O)O)cc1OC1CC1)cn2C1CCOCC1", "note": "[P-0381, 3-chloro-5-cyclopropoxy-4-(5-(3,5-dimethylisoxazol-4-yl)-1-(tetrahydro-2H-pyran-4-yl)-1H-pyrrolo[2,3-b]pyridin-3-yl)benzoic acid]", "IC50": "0.1 to 1000"}, {"compound": "Cc1noc(C)c1-c1cnc2c(c1)c(-c1ccc(C(=O)O)cc1OC(F)(F)F)cn2C1CCC1", "note": "[P-0378, 4-(1-cyclobutyl-5-(3,5-dimethylisoxazol-4-yl)-1H-pyrrolo[2,3-b]pyridin-3-yl)-3-(trifluoromethoxy)benzoic acid]", "IC50": "0.1 to 1000"}, {"compound": "Cc1noc(C)c1-c1cnc2c(c1)c(-c1c(Cl)cc(C(=O)O)cc1OCC(F)F)cn2-c1ccccc1", "note": "[P-0332, 3-chloro-5-(2,2-difluoroethoxy)-4-(5-(3,5-dimethylisoxazol-4-yl)-1-phenyl-1H-pyrrolo[2,3-b]pyridin-3-yl)benzoic acid]", "IC50": "0.1 to 1000"}, {"compound": "Cc1noc(C)c1-c1cnc2c(c1)c(-c1c(Cl)cc(C(=O)O)cc1OC1CCC1)cn2C1CCOCC1", "note": "[P-0358, 3-chloro-5-cyclobutoxy-4-(5-(3,5-dimethylisoxazol-4-yl)-1-(tetrahydro-2H-pyran-4-yl)-1H-pyrrolo[2,3-b]pyridin-3-yl)benzoic acid]", "IC50": "0.1 to 1000"}, {"compound": "Cc1noc(C)c1-c1cnc2c(c1)c(-c1c(F)cc(C(=O)O)cc1OCC(F)F)cn2-c1cnc(N2CCC2)nc1", "note": "[P-0348, 4-(1-(2-(azetidin-1-yl)pyrimidin-5-yl)-5-(3,5-dimethylisoxazol-4-yl)-1H-pyrrolo[2,3-b]pyridin-3-yl)-3-(2,2-difluoroethoxy)-5-fluorobenzoic acid]", "IC50": "0.1 to 1000"}, {"compound": "Cc1noc(C)c1-c1cnc2c(c1)c(-c1c(Cl)cc(C(=O)O)cc1OCC(F)F)cn2C1CCOCC1", "note": "[P-0359, 3-chloro-5-(2,2-difluoroethoxy)-4-(5-(3,5-dimethylisoxazol-4-yl)-1-(tetrahydro-2H-pyran-4-yl)-1H-pyrrolo[2,3-b]pyridin-3-yl)benzoic acid]", "IC50": "0.1 to 1000"}, {"compound": "Cc1noc(C)c1-c1cnc2c(c1)c(-c1c(Cl)cc(C(=O)O)cc1OC(F)(F)F)cn2C(C1CCC1)C1CCC1", "note": "[P-0380, 3-chloro-4-(1-(dicyclobutylmethyl)-5-(3,5-dimethylisoxazol-4-yl)-1H-pyrrolo[2,3-b]pyridin-3-yl)-5-(trifluoromethoxy)benzoic acid]", "IC50": "0.1 to 1000"}, {"compound": "Cc1noc(C)c1-c1cnc2c(c1)c(-c1ccc(C(=O)O)cc1Cl)cn2C(c1ccccn1)C1CCCC1", "note": "(stereo not shown) [P-0027, 3-chloro-4-(1-(cyclopentyl(pyridin-2-yl)methyl)-5-(3,5-dimethylisoxazol-4-yl)-1H-pyrrolo[2,3-b]pyridin-3-yl)benzoic acid]", "IC50": "0.1 to 1000"}, {"compound": "Cc1noc(C)c1-c1cnc2c(c1)c(-c1ccc(C(=O)O)cc1OC1CCC1)cn2-c1ncccc1C#N", "note": "[P-0334, 4-(1-(3-cyanopyridin-2-yl)-5-(3,5-dimethylisoxazol-4-yl)-1H-pyrrolo[2,3-b]pyridin-3-yl)-3-cyclobutoxybenzoic acid]", "IC50": "0.1 to 1000"}, {"compound": "Cc1noc(C)c1-c1cnc2c(c1)c(-c1ccc(C(=O)O)cc1OCC(F)F)cn2-c1cnc(C2CC2)nc1", "note": "[P-0387, 4-(1-(2-cyclopropylpyrimidin-5-yl)-5-(3,5-dimethylisoxazol-4-yl)-1H-pyrrolo[2,3-b]pyridin-3-yl)-3-(2,2-difluoroethoxy)benzoic acid]", "IC50": "0.1 to 1000"}, {"compound": "Cc1noc(C)c1-c1cnc2c(c1)c(-c1c(Cl)cc(C(=O)O)cc1OCC(F)F)cn2-c1cnc(N2CCC2)nc1", "note": "[P-0331, 4-(1-(2-(azetidin-1-yl)pyrimidin-5-yl)-5-(3,5-dimethylisoxazol-4-yl)-1H-pyrrolo[2,3-b]pyridin-3-yl)-3-chloro-5-(2,2-difluoroethoxy)benzoic acid]", "IC50": "0.1 to 1000"}, {"compound": "Cc1noc(C)c1-c1cnc2c(c1)c(-c1ccc(C(=O)O)cc1OC(F)(F)F)cn2C1(C)CCOC1", "note": "(stereo not shown) [P-0383, 4-(5-(3,5-dimethylisoxazol-4-yl)-1-(3-methyltetrahydrofuran-3-yl)-1H-pyrrolo[2,3-b]pyridin-3-yl)-3-(trifluoromethoxy)benzoic acid]", "IC50": "0.1 to 1000"}, {"compound": "CCOc1cc(C(=O)O)c(F)cc1-c1cn(C2CCOCC2)c2ncc(-c3c(C)noc3C)cc12", "note": "[P-0375, 4-(5-(3,5-dimethylisoxazol-4-yl)-1-(tetrahydro-2H-pyran-4-yl)-1H-pyrrolo[2,3-b]pyridin-3-yl)-5-ethoxy-2-fluorobenzoic acid]", "IC50": "0.1 to 1000"}, {"compound": "Cc1noc(C)c1-c1cnc2c(c1)c(-c1ccc(C(=O)O)c(O)c1)cn2C(c1ccccn1)C1CCCC1", "note": "(stereo not shown) [P-0030, 4-(1-(cyclopentyl(pyridin-2-yl)methyl)-5-(3,5-dimethylisoxazol-4-yl)-1H-pyrrolo[2,3-b]pyridin-3-yl)-2-hydroxybenzoic acid]", "IC50": "1000 to 8000"}, {"compound": "Cc1noc(C)c1-c1cnc2c(c1)c(-c1ccc(C(=O)O)cc1OC(F)(F)F)c(C)n2-c1ncccc1C#N", "note": "[P-0345, 4-(1-(3-cyanopyridin-2-yl)-5-(3,5-dimethylisoxazol-4-yl)-2-methyl-1H-pyrrolo[2,3-b]pyridin-3-yl)-3-(trifluoromethoxy)benzoic acid]", "IC50": "0.1 to 1000"}, {"compound": "Cc1nn(C(F)F)cc1-n1cc(-c2ccc(C(=O)O)cc2OCC(F)F)c2cc(-c3c(C)noc3C)cnc21", "note": "[P-0349, 3-(2,2-difluoroethoxy)-4-(1-(1-(difluoromethyl)-3-methyl-1H-pyrazol-4-yl)-5-(3,5-dimethylisoxazol-4-yl)-1H-pyrrolo[2,3-b]pyridin-3-yl)benzoic acid]", "IC50": "0.1 to 1000"}, {"compound": "Cc1noc(C)c1-c1cnc2c(c1)c(-c1ccc(C(=O)O)cc1OC(F)(F)F)cn2-c1cnc(N(C)C)nc1", "note": "[P-0321]", "IC50": "0.1 to 1000"}, {"compound": "Cc1cc(-c2cn(C(c3ccccn3)C3CCCC3)c3ncc(-c4c(C)noc4C)cc23)ccc1C(=O)O", "note": "(stereo not shown) [P-0028, 4-(1-(cyclopentyl(pyridin-2-yl)methyl)-5-(3,5-dimethylisoxazol-4-yl)-1H-pyrrolo[2,3-b]pyridin-3-yl)-2-methylbenzoic acid]", "IC50": "0.1 to 1000"}, {"compound": "Cc1noc(C)c1-c1cnc2c(c1)c(-c1c(Cl)cc(C(=O)O)cc1OCC(F)F)cn2[C@H]1CCOC1", "note": "[P-0333, (S)-3-chloro-5-(2,2-difluoroethoxy)-4-(5-(3,5-dimethylisoxazol-4-yl)-1-(tetrahydrofuran-3-yl)-1H-pyrrolo[2,3-b]pyridin-3-yl)benzoic acid]", "IC50": "0.1 to 1000"}]}]}
